Test system: P12-Ichikawa
Experiment: cell viability relative to DMSO control; higher = less cytotoxic
Conditions: 48 h
Procedure, shortened: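 NOMO1 or SEM cells were plated at 500 cells/well and P12-Ichikawa cells at 1000 cells/well in 1536-well plates (5 μl), after each leukemia line had been adapted for at least four passages in each medium. Pin dosing delivered library compounds in DMSO at 11 threefold concentrations, 47 μM to 0.79 nM. CellTiter-Glo One luminescence was read after 48 h at 37°C. Viability is reported as a per-plate percentage of DMSO wells, with cell-free wells as background.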

[1] = HPLM + 10% dialyzed FBS, 0.000781 µM
[2] = HPLM + 10% dialyzed FBS, 0.00234 µM
[3] = HPLM + 10% dialyzed FBS, 0.00702 µM
[4] = HPLM + 10% dialyzed FBS, 0.0211 µM
[5] = HPLM + 10% dialyzed FBS, 0.0632 µM
[6] = HPLM + 10% dialyzed FBS, 0.19 µM
[7] = HPLM + 10% dialyzed FBS, 0.569 µM
[8] = HPLM + 10% dialyzed FBS, 1.71 µM
[9] = HPLM + 10% dialyzed FBS, 5.12 µM
[10] = HPLM + 10% dialyzed FBS, 15.4 µM
[11] = HPLM + 10% dialyzed FBS, 46.1 µM
[12] = RPMI 5 mM glucose + 10% FBS, 0.000781 µM
[13] = RPMI 5 mM glucose + 10% FBS, 0.00234 µM
[14] = RPMI 5 mM glucose + 10% FBS, 0.00702 µM
[15] = RPMI 5 mM glucose + 10% FBS, 0.0211 µM
[16] = RPMI 5 mM glucose + 10% FBS, 0.0632 µM
[17] = RPMI 5 mM glucose + 10% FBS, 0.19 µM
[18] = RPMI 5 mM glucose + 10% FBS, 0.569 µM
[19] = RPMI 5 mM glucose + 10% FBS, 1.71 µM
[20] = RPMI 5 mM glucose + 10% FBS, 5.12 µM
[21] = RPMI 5 mM glucose + 10% FBS, 15.4 µM
[22] = RPMI 5 mM glucose + 10% FBS, 46.1 µM
[23] = RPMI 5 mM glucose + 10% dialyzed FBS, 0.000781 µM
[24] = RPMI 5 mM glucose + 10% dialyzed FBS, 0.00234 µM
[25] = RPMI 5 mM glucose + 10% dialyzed FBS, 0.00702 µM
[26] = RPMI 5 mM glucose + 10% dialyzed FBS, 0.0211 µM
[27] = RPMI 5 mM glucose + 10% dialyzed FBS, 0.0632 µM
[28] = RPMI 5 mM glucose + 10% dialyzed FBS, 0.19 µM
[29] = RPMI 5 mM glucose + 10% dialyzed FBS, 0.569 µM
[30] = RPMI 5 mM glucose + 10% dialyzed FBS, 1.71 µM
[31] = RPMI 5 mM glucose + 10% dialyzed FBS, 5.12 µM
[32] = RPMI 5 mM glucose + 10% dialyzed FBS, 15.4 µM
[33] = RPMI 5 mM glucose + 10% dialyzed FBS, 46.1 µM

Row | SMILES | cell viability [1] | cell viability [2] | cell viability [3] | cell viability [4] | cell viability [5] | cell viability [6] | cell viability [7] | cell viability [8] | cell viability [9] | cell viability [10] | cell viability [11] | cell viability [12] | cell viability [13] | cell viability [14] | cell viability [15] | cell viability [16] | cell viability [17] | cell viability [18] | cell viability [19] | cell viability [20] | cell viability [21] | cell viability [22] | cell viability [23] | cell viability [24] | cell viability [25] | cell viability [26] | cell viability [27] | cell viability [28] | cell viability [29] | cell viability [30] | cell viability [31] | cell viability [32] | cell viability [33]
1 | COC1=C2OC(=O)\C=C/C2=CC3=C1OC=C3 | 118% | 113% | 115% | 116% | 112% | 107% | 108% | 102% | 99.7% | 61.3% | 84.6% | 118% | 117% | 117% | 111% | 109% | 110% | 113% | 110% | 109% | 55.6% | 86.8% | 115% | 117% | 119% | 125% | 108% | 109% | 105% | 100% | 101% | 60.2% | 74.4%
2 | CC(C)(C)c1[nH]cnc1/C=c1\[nH]c(=O)/c(=C/c2ccccc2)[nH]c1=O | 115% | 80% | 22.5% | 18.4% | 12% | 9.79% | 7.81% | 3.5% | 2.31% | 2.32% | 2.23% | 100% | 97% | 16.3% | 26.5% | 17.8% | 8.22% | 5.98% | 3.28% | 2.14% | 1.52% | 1.95% | 103% | 110% | 32.7% | 36.8% | 25% | 15.7% | 14.2% | 4.42% | 4.87% | 2.24% | 2.04%
3 | FC1=CC=C(SC/2=N/N3\C=N/C(=O)/C(=C3/C=C2)C4=C(Cl)C=CC=C4Cl)C(=C1)F | 100% | 104% | 114% | 108% | 114% | 102% | 117% | 114% | 114% | 94.9% | 33.6% | 105% | 101% | 95.7% | 108% | 106% | 104% | 106% | 98.6% | 93.4% | 66.2% | 24.8% | 96.4% | 104% | 110% | 104% | 107% | 107% | 105% | 120% | 105% | 86% | 38.1%
4 | Cc1cnc(NC(=O)Nc2cc(Br)c(C)cc2OC[C@@H]2CNCCO2)cn1 | 119% | 106% | 112% | 113% | 120% | 106% | 104% | 100% | 76.7% | 93.8% | 48.4% | 108% | 109% | 105% | 111% | 118% | 115% | 111% | 99.1% | 67.9% | 99.5% | 34.3% | 114% | 120% | 118% | 121% | 121% | 123% | 110% | 91% | 53.2% | 82.4% | 23.9%
5 | FC(F)c1nc2ccccc2n1-c1nc(N2CCOCC2)nc(N2CCOCC2)n1 | 98.2% | 108% | 107% | 104% | 101% | 91.4% | 85.4% | 78.5% | 83.8% | 81.9% | 59.1% | 98% | 104% | 96% | 85.4% | 92.8% | 71% | 64.7% | 58.9% | 61.1% | 58.7% | 58% | 106% | 94.5% | 103% | 102% | 95.3% | 92.6% | 75.7% | 54.4% | 63.5% | 64.8% | 55.8%
6 | C/C=C1\C2C=C(C)CC1(N)c1ccc(=O)[nH]c1C2 (stereo unspecified) | 102% | 108% | 107% | 107% | 109% | 109% | 107% | 104% | 96.3% | 106% | 79.2% | 105% | 110% | 112% | 106% | 113% | 101% | 98.3% | 91.2% | 98.9% | 98.7% | 92.8% | 110% | 98% | 108% | 102% | 94.9% | 107% | 98.4% | 97.1% | 88.5% | 95.2% | 90.9%
7 | COc1cc2c(cc1OC)CC(=O)N(CCCN(C)C[C@H]1Cc3cc(OC)c(OC)cc31)CC2.Cl | 108% | 111% | 111% | 108% | 104% | 120% | 113% | 114% | 116% | 108% | 106% | 97.5% | 106% | 115% | 113% | 109% | 111% | 110% | 102% | 109% | 104% | 106% | 104% | 104% | 114% | 115% | 113% | 111% | 102% | 97.3% | 108% | 98.1% | 100%
8 | COc1ccc(-n2nc(C(N)=O)c3c2C(=O)N(c2ccc(N4CCCCC4=O)cc2)CC3)cc1 | 118% | 121% | 125% | 132% | 132% | 127% | 141% | 124% | 16% | 15.2% | 14.8% |  |  |  |  |  |  |  |  |  |  |  |  |  |  |  |  |  |  |  |  |  | 
9 | O=C(Nc1ccccc1-c1cn2c(CN3CCNCC3)csc2n1)c1cnc2ccccc2n1 | 84.5% | 89.8% | 89.3% | 84.4% | 90.1% | 88.3% | 85.3% | 84.5% | 83.9% | 75.3% | 0.861% | 80.4% | 85.3% | 83.6% | 85.2% | 86.5% | 86.1% | 79.8% | 76.2% | 82.9% | 67.9% | 1.29% | 83% | 84% | 80.3% | 80.5% | 78.1% | 87.4% | 78.4% | 78.7% | 77.8% | 69% | 1.1%
10 | CN(NC(=O)CC(=O)NN(C)C(=S)c1ccccc1)C(=S)c1ccccc1 | 90.7% | 88.6% | 91.7% | 88.1% | 58.8% | 31.4% | 4.03% | 3.29% | 3.87% | 4.02% | 38.3% | 75.8% | 86.9% | 86.6% | 90.8% | 56.8% | 24.1% | 2.71% | 2.73% | 3.65% | 3.06% | 42.1% | 92.4% | 89.9% | 102% | 101% | 58.4% | 20.1% | 3.2% | 2.92% | 3.18% | 3.13% | 31.3%
11 | Cc1[nH]c2ccccc2c1CCNCc1ccc(/C=C/C(=O)NO)cc1 | 109% | 106% | 111% | 120% | 121% | 103% | 63.1% | 7.05% | 6.95% | 7.08% | 7.23% | 106% | 120% | 108% | 107% | 128% | 109% | 48.2% | 6.65% | 6.49% | 8.3% | 6.44% | 114% | 109% | 117% | 111% | 122% | 113% | 74.4% | 6.85% | 6.73% | 6.95% | 7.21%
12 | CC[C@H](C)[N]1C=C(C)C2=C1C=C(C=C2C(=O)NC\C3=C(C)\C=C(\C)NC3=O)C4=CC=C(N=C4)N5CCNCC5 | 109% | 116% | 114% | 115% | 115% | 122% | 116% | 117% | 114% | 118% | 109% | 104% | 116% | 117% | 118% | 117% | 113% | 126% | 129% | 117% | 125% | 106% | 103% | 107% | 108% | 113% | 115% | 114% | 116% | 132% | 115% | 108% | 93.1%
13 | Cn1cnc2c1c(=O)[nH]c(=O)n2C | 105% | 107% | 100% | 104% | 110% | 105% | 112% | 108% | 97.1% | 98% | 9.4% | 104% | 104% | 93.9% | 97.6% | 103% | 103% | 100% | 98.5% | 99% | 82.2% | 34.1% | 102% | 102% | 103% | 102% | 100% | 99.8% | 103% | 97.9% | 87.2% | 80.9% | 25.7%
14 | O=C(Nc1cc2cc[nH]c2cn1)c1ccccc1 | 95% | 90.7% | 109% | 112% | 113% | 109% | 111% | 106% | 5.06% | 1.54% | -0.599% | 93.1% | 113% | 111% | 114% | 119% | 130% | 109% | 104% | 90.4% | 45.8% | 1.1% | 79.4% | 101% | 102% | 104% | 99.7% | 102% | 103% | 101% | 58.2% | 7.54% | 1.18%
15 | COc1cc(OC)c(/C=C/[S+](=O)([O-])Cc2ccc(OC)c(NCC(=O)[O][Na])c2)c(OC)c1 | 125% | 124% | 123% | 120% | 116% | 87.5% | 18.3% | 13.2% | 12.7% | 10.1% | 9.65% | 124% | 120% | 126% | 104% | 118% | 76.9% | 23.1% | 12.5% | 11.1% | 11.4% | 10.8% | 120% | 122% | 120% | 115% | 116% | 50.1% | 24.6% | 13.8% | 12% | 11.3% | 9.89%
16 | N[C@H](CSC(c1ccccc1)(c1ccccc1)c1ccccc1)C(=O)O | 107% | 112% | 121% | 129% | 108% | 114% | 117% | 120% | 115% | 114% | 108% | 97.6% | 112% | 115% | 124% | 116% | 122% | 120% | 119% | 125% | 124% | 131% | 90.9% | 116% | 122% | 116% | 118% | 112% | 115% | 121% | 127% | 121% | 116%

From the supplement of paper PMC11451515
